Laboratory results from PMC11748689, “Pharmacological and structural understanding of the Trypanosoma cruzi proteasome provides key insights for developing site-specific inhibitors” (The Journal of Biological Chemistry, 2024).

Assays:
[1] = target: native T. cruzi proteasome (chymotrypsin-like activity, β5) (Trypanosoma cruzi, UniProt V5BU39+V5C017); assay: Chymotrypsin-like activity assay (Proteasome-Glo), native T. cruzi proteasome; format: biochemical
Procedure: Chymotrypsin-, trypsin-, and caspase-like activity assays were performed using a commercially available Proteasome-Glo 3-substrate system assay kit (catalog number G8532) (Promega Corporation) according to the manufacturers protocols and as previously described ([24]).
Prior to running assays, Proteasome-Glo buffer was used to reconstitute the luciferin detection reagent (containing a recombinant thermostable luciferase enzyme). The resuspended luciferin detection reagent was then mixed with Proteasome-Glo chymotrypsin-, trypsin- or caspase-like substrates (either 40 μM suc-Leu-Leu-Val-Tyr-aminoluciferin, 30 μM Z-Leu-Arg-Arg-aminoluciferin (Z is benzyloxycarbonyl) or 40 μM Z-Nle-Pro-Nle-Asp-aminoluciferin respectively (these concentrations represent 2x final assay concentrations)). These substrate mixtures were allowed to incubate at room temperature for 60 min prior to use to allow the removal of any contaminating free aminoluciferin.
When proteasome inhibitors were to be screened in the chymotrypsin, trypsin, and caspase assays, test compounds were dispensed into assay wells using an ECHO 550 acoustic dispenser (Labcyte) (final DMSO concentration 1%). Compounds were tested in either a 10-point concentration series (30 μM top final assay concentration, 1 in 3 dilution series) or a 12-point concentration series (30 μM top final assay concentration, 1 in 2.5 dilution series).
Proteasome assays were then performed as described above using Promega Proteasome-Glo 3-substrate system assay kit. […] Diluted proteasome (4 μl) was added to assay plates using an electronic multichannel pipette (Integra Biosciences Ltd) and the proteasome incubated with compound for 60 min at room temperature.
Following the 60 min incubation of proteasome and compounds, assays were initiated with the addition of 4 μl of a substrate mix (containing substrate and the luciferin detection reagent) using an electronic multichannel pipette. Final assay concentrations of substrates used were either 20 μM Suc-Leu-Leu-Val-Tyr-aminoluciferin, 15 μM Z-Leu-Arg-Arg-aminoluciferin, or 20 μM Z-Nle-Pro-Nle-Asp-aminoluciferin for chymotrypsin-, trypsin-, or caspase-like activity, respectively. Following a further 60 min assay incubation, luminescence was read using an EnVision 2102 Multilabel Reader (PerkinElmer, Inc) with 0.2 s per well reading time.
All data processing was performed using Microsoft Excel for Microsoft 365 software.
Nonlinear dose-response curve fitting was carried out using the Microsoft Excel add-in, XLfit (IDBS). Percentage inhibition data were either fitted to a standard 4-parameter logistic fit model (XLfit model 205; Equation 2) or a biphasic model (either XLfit model 300; Equation 3 or a custom biphasic model; Equation 4 (used in cases where the top and/or bottom parameters deviated from 100%/0% inhibition)).(2) y=A+(B−A)/1+(C/x)^D Where A = % inhibition at bottom, B = % inhibition at top, C = IC50, D = slope, x = inhibitor concentration and y = % inhibition.(3) y=(A/(1+10^(C−log(x))∗B))+((100−A)/(1+10^(D−log(x))∗B)) With A = % inhibition at midplateau, B = slope, C = log(IC50^A), D = log(IC50^B)).
All IC50 data generated were converted to pIC50 using Equation 5.

[2] = target: human proteasome (chymotrypsin activity) (Homo sapiens, UniProt P28074); assay: Human proteasome chymotrypsin activity assay; format: biochemical; conditions: dose response curve, n = 2 (Fig. S7)
Procedure: Human proteasome assays were carried out as described in ([42]).

Chain of native T. cruzi proteasome (chymotrypsin-like activity, β5) (V5BU39 entry or part of it): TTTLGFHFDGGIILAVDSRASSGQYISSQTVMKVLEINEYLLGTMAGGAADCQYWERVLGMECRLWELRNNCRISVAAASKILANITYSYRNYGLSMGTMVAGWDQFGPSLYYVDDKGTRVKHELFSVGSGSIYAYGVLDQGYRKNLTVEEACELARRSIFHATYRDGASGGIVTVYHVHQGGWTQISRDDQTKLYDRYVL
Chain of native T. cruzi proteasome (chymotrypsin-like activity, β5) (V5C017 entry or part of it): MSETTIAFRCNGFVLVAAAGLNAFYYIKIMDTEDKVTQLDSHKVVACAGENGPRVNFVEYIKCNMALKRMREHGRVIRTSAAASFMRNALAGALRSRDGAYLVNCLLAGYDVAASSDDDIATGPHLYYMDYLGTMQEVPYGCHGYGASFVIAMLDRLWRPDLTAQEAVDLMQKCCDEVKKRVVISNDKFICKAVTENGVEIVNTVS
Chain of native T. cruzi proteasome (chymotrypsin-like activity, β5) (V5BGL9 entry or part of it, further chain): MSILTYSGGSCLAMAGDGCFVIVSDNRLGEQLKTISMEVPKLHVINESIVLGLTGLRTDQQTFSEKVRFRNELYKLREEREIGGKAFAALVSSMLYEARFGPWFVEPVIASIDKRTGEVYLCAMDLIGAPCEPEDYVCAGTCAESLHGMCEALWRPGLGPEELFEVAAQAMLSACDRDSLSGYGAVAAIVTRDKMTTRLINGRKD

Row | SMILES | IC50 [1] [nM] | inhibition of the human chymotrypsin activity [2]
1 | O=C(Nc1ccc(F)c(C(=O)NC2CC2)c1)c1ccc(COc2ccccc2)o1 [DDD02091966, N-(3-(cyclopropylcarbamoyl)-4-fluorophenyl)-5-(phenoxymethyl)furan-2-carboxamide] | 38 | no inhibition
2 | O=C(Nc1ccc(F)c(-c2cn3nc(-c4ccccc4)cnc3n2)c1)N1CCCC1 [DDD01012248] | 30.9 | 
